Here are results for five molecules from patent US5331094A, “Purified active somatostatin receptor” (American Cyanamid Company, priority 1992, dated 1994).

This test addresses SRIF receptor. The experiment in a line: Competitive radioligand binding assay with [125I]Tyr11-S14 and GH4 C1 membranes. Further details: species or system rat. The conditions noted are these: for IC50: vs [125I]Tyr11-S14, 20 ug GH4 C1 membrane protein, 100,000 cpm radioligand (FIG. 1B). On the procedure: 1. Standard Binding Assays--Binding assays are done in a binding buffer containing 50 mM HEPES (pH 7.4), 0.5% BSA and 5 mM MgCl2. The standard assay for [^125 I]SRIF analog binding to GH4 C1 membranes, done in 96 well microtiter plates (Dynataech Immulon II Removawell plates), is carried out as follows: 1. Radioligand is diluted in binding buffer+ PMSF/Baci to the desired cpm per vol. of 50 μl and then 50 μl aliquots are added to the wells. For non-specific binding samples, 5 μl of 40 μM cold S14 is also added per well. 2. Binding is initiated by adding 150 μl per well of membrane diluted to the desired concentration (10-30 ug membrane protein/well) in binding buffer+ PMSF/Baci. Plates are then covered with Linbro mylar plate sealers (Flow Labs) and placed on a Dynatech Microshaker II and binding is allowed to proceed at room temperature for 1-2 hours. Binding is stopped by centrifuging the plate for 15 minutes at 2,000×g. The supernatants are dumped off and membrane pellets washed once by addition of 200 μl of ice cold binding buffer, brief shaking and recentrifugation. Finally the individual wells are placed in 12×75 mm tubes and counted in an LKB Gammamaster counter (78% efficiency). Specific binding by this method is identical to that measured when free ligand is removed by rapid (3-5 seconds) filtration and washing on polyethyleneimine-coated glass fiber filters.
2. competitive radioligand binding assays with a concentration range of cold ligand vs. [^125 I]SRIF are carried out as described above with one modification. All dilutions of SRIF analogs being assayed are made in 40×PMSF/Baci to a concentration 40× the final concentration in the assay. This gives very consistent results with a wide variety of SRIF structural analogs over a wide range of dilutions. 5 ul samples of peptide are then added per microtiter well. Membranes and radioligand are diluted out in binding buffer without protease inhibitors. Radioligand is added and mixed with cold peptides and then binding is initiated by addition of membranes.
These assays are carried out as described in "Methods: Receptor Binding Methods, 2". […] Therefore the Bio-6C-S14, Bio-12C-S14 and Bio-S28analogs are preferably synthesized. In Bio-S28, amino acid residues 1-14 are considered a spacer since residues 15-28 are equivalent to an S14 analog, having all the necessary structure for high affinity binding. The three spacer-containing biotinyl SRIFs show receptor binding activity similar to that of S14 (FIG. 1B; assays contained 20 ug of GH 4 C1 membrane protein and 100,000 cpm of radioligand). The IC50 s and relative potencies are S14 (0.2 nM)>Bio-S28(0.3 nM) >Bio-6C-S14 (2 nM)>Bio-12C-S14 (2 nM).

Bridge positions count the residues as written; N and C are the ends. Square brackets hold non-standard residues; d marks the D form. Peptide text beside a SMILES is read from it. * marks the point of attachment. Biotin = O=C1N[C@H]2[C@H](CS[C@H]2CCCCC(=O)*)N1; Ahx = NCCCCCC(=O)O

`C[C@H](NC(=O)CCCCCNC(=O)CCCC[C@@H]1SC[C@@H]2NC(=O)N[C@@H]21)C(=O)NCC(=O)N[C@H]1CSSC[C@@H](C(=O)O)NC(=O)[C@H](CO)NC(=O)[C@H]([C@@H](C)O)NC(=O)[C@H](Cc2ccc(O)cc2)NC(=O)[C@H]([C@@H](C)O)NC(=O)[C@H](CCCCN)NC(=O)[C@H](Cc2c[nH]c3ccccc23)NC(=O)[C@H](Cc2ccccc2)NC(=O)[C@H](Cc2ccccc2)NC(=O)[C@H](CC(N)=O)NC(=O)[C@H](CCCCN)NC1=O` [Bio-6C-S14, Biotinyl-[NH--(CH2)5 --CO]--NH-(Tyr11)SRIF14] ({Biotin-Ahx}-AGCKNFFWKTYTSC-OH; disulfide 3-14) returned an IC50 of 2 nM.
Same read-out and setting: next, `C[C@H](NC(=O)CCCCCNC(=O)CCCCCNC(=O)CCCC[C@@H]1SC[C@@H]2NC(=O)N[C@@H]21)C(=O)NCC(=O)N[C@H]1CSSC[C@@H](C(=O)O)NC(=O)[C@H](CO)NC(=O)[C@H]([C@@H](C)O)NC(=O)[C@H](Cc2ccc(O)cc2)NC(=O)[C@H]([C@@H](C)O)NC(=O)[C@H](CCCCN)NC(=O)[C@H](Cc2c[nH]c3ccccc23)NC(=O)[C@H](Cc2ccccc2)NC(=O)[C@H](Cc2ccccc2)NC(=O)[C@H](CC(N)=O)NC(=O)[C@H](CCCCN)NC1=O` [Bio-12C-S14, Biotinyl-[NH-(CH2)5 -CO]2 -NH-(Tyr11)SRIF14] ({Biotin-Ahx-Ahx}-AGCKNFFWKTYTSC-OH; disulfide 3-14 (inferred); C-terminus assumed): 2 nM.
Regarding Biotinyl-NH-SRIF14 [Biotinyl-NH-S14], under “FIG. 1A, 40 ug GH4 C1 membrane protein, 85,000 cpm radioligand”, the “potency relative to S14 in the competitive binding assay” value is “about 1.5%”.
`CC(C)C[C@H](NC(=O)[C@H](C)NC(=O)[C@@H]1CCCN1C(=O)[C@H](CC(N)=O)NC(=O)[C@H](CO)NC(=O)[C@H](CC(N)=O)NC(=O)[C@H](C)NC(=O)[C@H](CO)NC(=O)CCCC[C@@H]1SC[C@@H]2NC(=O)N[C@@H]21)C(=O)N[C@@H](C)C(=O)N1CCC[C@H]1C(=O)N[C@@H](CCCNC(=N)N)C(=O)N[C@@H](CCC(=O)O)C(=O)N[C@@H](CCCNC(=N)N)C(=O)N[C@@H](CCCCN)C(=O)N[C@@H](C)C(=O)NCC(=O)N[C@H]1CSSC[C@@H](C(=O)O)NC(=O)[C@H](CO)NC(=O)[C@H]([C@@H](C)O)NC(=O)[C@H](Cc2ccc(O)cc2)NC(=O)[C@H]([C@@H](C)O)NC(=O)[C@H](CCCCN)NC(=O)[C@@H](Cc2c[nH]c3ccccc23)NC(=O)[C@H](Cc2ccccc2)NC(=O)[C@H](Cc2ccccc2)NC(=O)[C@H](CC(N)=O)NC(=O)[C@H](CCCCN)NC1=O` [Bio-S28, Biotinyl-NH-(Leu8, D-Trp22, Tyr25)SRIF28] (Biotin-SANSNPALAPRERKAGCKNFF[dW]KTYTSC-OH; disulfide 17-28 (inferred); C-terminus assumed) showed an IC50 of 0.3 nM.
The same measure, in the same setting: next, `C[C@H](N)C(=O)NCC(=O)N[C@H]1CSSC[C@@H](C(=O)O)NC(=O)[C@H](CO)NC(=O)[C@H]([C@@H](C)O)NC(=O)[C@H](Cc2ccccc2)NC(=O)[C@H]([C@@H](C)O)NC(=O)[C@H](CCCCN)NC(=O)[C@H](Cc2c[nH]c3ccccc23)NC(=O)[C@H](Cc2ccccc2)NC(=O)[C@H](Cc2ccccc2)NC(=O)[C@H](CC(N)=O)NC(=O)[C@H](CCCCN)NC1=O` [S14, reference compound]: 0.2 nM.
